Test results: ChEMBL document CHEMBL1152752, “Chemical components and its antioxidant properties in vitro: an edible marine brown alga, Ecklonia cava” (Bioorg Med Chem, 2009)
pIC50: −log10 of the molar value. Active and inactive are the calls of the source. No cut-off for these calls is given here.

What was measured:
MRC5 = assay: Cytotoxicity against human MRC5 cells at 100 uM after 24 hrs by MTT assay; assay type: cell-based; details: mrc5, 24 h
HL-60 = assay: Cytotoxicity against human HL60 cells at 100 uM after 24 hrs by MTT assay; assay type: functional, cell-based
RAW264.7 [1] = assay: Cytotoxicity against mouse RAW264.7 cells at 100 uM after 24 hrs by MTT assay; assay type: functional, cell-based
[2] = test system: Radical scavenging activity; assay: Antioxidant activity assessed as DPPH radical scavenging activity; assay type: functional
[3] = Antioxidant activity assessed as superoxide radical scavenging activity; assay type: functional
RAW264.7 [4] = assay: Inhibition of Fe(2+)/H2O2-generated hydroxyl radical induced membrane protein oxidation in mouse RAW264.7 cells at 1 uM to 50 uM relative to control; assay type: functional
RAW264.7 [5] = assay: Antioxidant activity against mouse RAW264.7 cells assessed as reduction of ROS production measured by fluorescent dichlorofluorescein using DCFH-DA substrate; assay type: functional, cell-based
RAW264.7 [6] = assay: Antioxidant activity against mouse RAW264.7 cells assessed as reduction of ROS production after 200 mins measured by fluorescent dichlorofluorescein using DCFH-DA substrate; assay type: functional, cell-based; details: TDE = time-dependent effect
[7] = Antioxidant activity assessed as […] generated peroxyl radical scavenging formation by ESR spectrometer; assay type: functional
[8] = Antioxidant activity assessed as Fenton system generated hydroxyl radical scavenging activity by ESR spectrometer; assay type: functional
[9] = target: T1, Myeloperoxidase (Homo sapiens) (UniProt P05164); assay: Inhibition of MPO activity in TNF-alpha-stimulated human HL60 cells measured enzyme activity per 10^6 cells at 50 uM by spectrophotometrically; assay type: cell-based; details: HL-60
T1 sequence (whole entry): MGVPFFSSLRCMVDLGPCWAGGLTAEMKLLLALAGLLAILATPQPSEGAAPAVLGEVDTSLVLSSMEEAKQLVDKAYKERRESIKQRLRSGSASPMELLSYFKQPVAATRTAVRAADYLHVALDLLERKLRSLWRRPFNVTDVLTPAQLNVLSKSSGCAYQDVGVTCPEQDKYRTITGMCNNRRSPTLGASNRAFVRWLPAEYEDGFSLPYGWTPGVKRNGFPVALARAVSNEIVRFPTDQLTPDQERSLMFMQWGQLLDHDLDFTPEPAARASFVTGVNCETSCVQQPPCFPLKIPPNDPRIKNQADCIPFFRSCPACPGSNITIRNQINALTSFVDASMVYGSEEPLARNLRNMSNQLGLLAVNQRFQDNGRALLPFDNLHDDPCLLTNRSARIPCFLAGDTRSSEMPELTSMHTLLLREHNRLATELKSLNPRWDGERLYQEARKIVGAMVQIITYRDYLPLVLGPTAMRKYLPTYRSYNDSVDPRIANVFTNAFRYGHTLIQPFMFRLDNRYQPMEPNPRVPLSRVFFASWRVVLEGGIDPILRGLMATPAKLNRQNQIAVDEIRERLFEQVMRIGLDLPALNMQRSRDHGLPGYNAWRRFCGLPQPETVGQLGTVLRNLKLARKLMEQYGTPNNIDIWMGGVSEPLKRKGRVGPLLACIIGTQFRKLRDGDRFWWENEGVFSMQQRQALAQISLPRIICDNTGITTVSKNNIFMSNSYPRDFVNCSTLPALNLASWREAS

RAW264.7 [10] = assay: Antioxidant activity against mouse RAW264.7 cells assessed as reduction of ROS production at 50 uM after 210 mins measured by fluorescent dichlorofluorescein using DCFH-DA substrate; assay type: functional; set-up: scale not given: the % may be the effect or the level left
[11] = target: T1, Myeloperoxidase (Homo sapiens); assay: Inhibition of MPO activity in TNF-alpha-stimulated human HL60 cells measured enzyme activity per 10^6 cells by spectrophotometrically; assay type: cell-based; details: HL-60
RAW264.7 [12] = assay: Antioxidant activity against mouse RAW264.7 cells assessed as reduction of ROS production at 50 uM after 200 mins measured by fluorescent dichlorofluorescein using DCFH-DA substrate; assay type: functional, cell-based
RAW264.7 [13] = assay: Increase in intracellular GSH level in mouse RAW264.7 cells assessed as monobromobimane-GSH fluorescence intensity at 20 uM after 120 mins; assay type: functional, cell-based
RAW264.7 [14] = assay: Antioxidant activity against mouse RAW264.7 cells assessed as reduction of ROS production at 1 uM after 200 mins measured by fluorescent dichlorofluorescein using DCFH-DA substrate; assay type: functional, cell-based
[15] = target: T1, Myeloperoxidase (Homo sapiens); assay: Inhibition of MPO activity in TNF-alpha-stimulated human HL60 cells measured enzyme activity per 10^6 cells at 10 uM by spectrophotometrically; assay type: cell-based; details: HL-60

SMILES	pIC50 [2]	pIC50 [3]	pIC50 [7]	pIC50 [8]	Activity [9]	Activity [11]	Activity [15]	Activity (MRC5)	Activity (HL-60)	Activity (RAW264.7 [1])	Activity (RAW264.7 [4])	Activity (RAW264.7 [5])	Activity (RAW264.7 [6])	Activity (RAW264.7 [10])	Activity (RAW264.7 [12])	Activity (RAW264.7 [13])	Activity (RAW264.7 [14])	inhibition (INH) (RAW264.7 [4])
Oc1cc(O)cc(Oc2c(O)cc(O)c3c2Oc2c(O)cc(Oc4c(O)cc(O)cc4O)cc2O3)c1	4.73	4.66	4.64	4.40				Non-toxic	inactive	inactive	Active	Dose-dependent effect	tde					
Oc1cc(O)cc(Oc2c(O)cc(O)c3c2Oc2c(O)cc(O)c(-c4c(O)cc(O)c5c4Oc4c(O)cc(O)c(Oc6cc(O)cc(O)c6)c4O5)c2O3)c1	5.06	4.80	4.77	4.53	0.47 IU	Dose-dependent effect	0.53 IU	Non-toxic	inactive	inactive		Dose-dependent effect	tde	83.58%	Active	Active	Active	67.3%
Oc1cc(O)cc(Oc2c(O)cc(O)c3c2Oc2c(O)cc(Oc4c(O)cc(Oc5c(O)cc(O)c6c5Oc5c(O)cc(O)cc5O6)cc4O)cc2O3)c1 [DIECKOL]	5.08	4.79	4.84	4.54	0.45 IU	Dose-dependent effect	0.51 IU	Non-toxic	inactive	inactive		Dose-dependent effect	tde	84.27%	Active	Active	Active	70.5%
Oc1cc(O)cc(Oc2c(O)cc(O)c3c2Oc2c(O)cc(O)cc2O3)c1 [ECKOL]	4.64	4.58	4.55	4.29				Non-toxic	inactive	inactive								

Second part, led by results:

pIC50 [2]	pIC50 [3]	pIC50 [7]	pIC50 [8]	Activity [9]	Activity [11]	Activity [15]	SMILES	Activity (MRC5)	Activity (HL-60)	Activity (RAW264.7 [1])	Activity (RAW264.7 [4])	Activity (RAW264.7 [5])	Activity (RAW264.7 [6])	Activity (RAW264.7 [10])	Activity (RAW264.7 [12])	Activity (RAW264.7 [13])	Activity (RAW264.7 [14])	inhibition (INH) (RAW264.7 [4])
4.83	4.73	4.74	4.47				Oc1cc(O)c(Oc2cc(O)cc(O)c2Oc2cc(O)cc(O)c2-c2c(O)cc(O)cc2O)c(O)c1 [FUCODIPHLOROETHOL G]	Non-toxic	inactive	inactive		Dose-dependent effect	tde	75.6%	Active	Active		
4.75	4.67	4.67	4.41				Oc1cc(O)cc(Oc2c(O)cc(O)c3c2Oc2c(O)cc4oc5c(Oc6cc(O)cc(O)c6)c(O)cc(O)c5c4c2O3)c1 [PHLOROFUCOFUROECKOL A]	Non-toxic	inactive	inactive	Active	Dose-dependent effect	tde					
	3.94	3.89	3.41				Oc1cc(O)cc(O)c1 [PHLOROGLUCINOL]	Non-toxic	inactive	inactive								
